Assay results reported in patent US9993459B2, “Selective HDAC6 inhibitors and uses thereof” (Universiteit Gent, priority 2015, dated 2018).

Assays:
HDAC7 = target: T1, HDAC7 (Homo sapiens, UniProt Q8WUI4); test: In vitro HDAC isozyme selectivity screen: HDAC7; type: biochemical; conditions: for IC50: Table 2
T1 sequence (Q8WUI4 1-952): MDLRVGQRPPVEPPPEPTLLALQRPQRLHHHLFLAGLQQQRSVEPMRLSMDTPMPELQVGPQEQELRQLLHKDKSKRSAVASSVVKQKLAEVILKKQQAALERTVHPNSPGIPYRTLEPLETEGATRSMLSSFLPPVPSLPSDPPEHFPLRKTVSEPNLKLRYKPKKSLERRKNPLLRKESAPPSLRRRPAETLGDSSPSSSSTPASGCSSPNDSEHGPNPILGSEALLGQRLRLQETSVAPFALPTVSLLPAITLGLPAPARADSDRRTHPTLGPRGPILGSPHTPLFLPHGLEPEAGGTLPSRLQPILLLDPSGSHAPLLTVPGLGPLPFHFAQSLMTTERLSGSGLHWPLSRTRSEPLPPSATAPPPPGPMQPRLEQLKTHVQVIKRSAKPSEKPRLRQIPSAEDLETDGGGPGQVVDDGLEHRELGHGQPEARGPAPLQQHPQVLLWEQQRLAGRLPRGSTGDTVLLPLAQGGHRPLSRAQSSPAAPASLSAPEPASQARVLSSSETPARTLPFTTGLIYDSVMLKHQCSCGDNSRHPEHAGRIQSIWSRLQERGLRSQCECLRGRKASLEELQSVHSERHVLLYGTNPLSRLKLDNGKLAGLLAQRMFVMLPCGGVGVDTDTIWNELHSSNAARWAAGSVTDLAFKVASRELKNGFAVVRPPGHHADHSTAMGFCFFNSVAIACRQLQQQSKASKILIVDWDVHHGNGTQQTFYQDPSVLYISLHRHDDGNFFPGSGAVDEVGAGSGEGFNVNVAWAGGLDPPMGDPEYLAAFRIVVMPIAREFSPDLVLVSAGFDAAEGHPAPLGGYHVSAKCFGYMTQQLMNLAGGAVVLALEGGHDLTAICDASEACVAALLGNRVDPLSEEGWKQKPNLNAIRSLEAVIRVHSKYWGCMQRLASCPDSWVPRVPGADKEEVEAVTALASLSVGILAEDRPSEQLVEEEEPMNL

[1] = tested on: glucocorticoid receptor, GR; test: GRE-dependent luciferase reporter p(GRE)2-50-luc in A549 cells; type: cell-based; conditions: for DEX-activated GR-driven gene expression (transcriptional activity of GR): A549, 1 μM or 10 μM, 1 h pre-incubation then DEX 1 μM 5 h
HDAC8 = target: T2, HDAC8 (Homo sapiens, UniProt Q9BY41); test: In vitro HDAC isozyme selectivity screen: HDAC8; type: biochemical; conditions: for IC50: Table 2
T2 sequence (Q9BY41 1-377): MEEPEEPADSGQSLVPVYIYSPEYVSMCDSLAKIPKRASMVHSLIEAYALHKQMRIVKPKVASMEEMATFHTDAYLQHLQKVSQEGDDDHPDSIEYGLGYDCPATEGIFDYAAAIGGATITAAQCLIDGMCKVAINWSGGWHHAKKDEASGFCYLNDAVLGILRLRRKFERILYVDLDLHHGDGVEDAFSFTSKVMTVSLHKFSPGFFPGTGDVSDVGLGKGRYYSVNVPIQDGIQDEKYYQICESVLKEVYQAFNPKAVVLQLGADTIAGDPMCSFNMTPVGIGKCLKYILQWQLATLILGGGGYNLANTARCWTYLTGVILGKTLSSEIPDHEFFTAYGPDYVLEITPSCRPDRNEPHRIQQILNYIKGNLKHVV

HDAC9 = HDAC9 (Homo sapiens, UniProt Q9UKV0); test: In vitro HDAC isozyme selectivity screen: HDAC9; type: biochemical; conditions: for IC50: Table 2
Sequence of HDAC9 (Q9UKV0 whole entry, species assumed): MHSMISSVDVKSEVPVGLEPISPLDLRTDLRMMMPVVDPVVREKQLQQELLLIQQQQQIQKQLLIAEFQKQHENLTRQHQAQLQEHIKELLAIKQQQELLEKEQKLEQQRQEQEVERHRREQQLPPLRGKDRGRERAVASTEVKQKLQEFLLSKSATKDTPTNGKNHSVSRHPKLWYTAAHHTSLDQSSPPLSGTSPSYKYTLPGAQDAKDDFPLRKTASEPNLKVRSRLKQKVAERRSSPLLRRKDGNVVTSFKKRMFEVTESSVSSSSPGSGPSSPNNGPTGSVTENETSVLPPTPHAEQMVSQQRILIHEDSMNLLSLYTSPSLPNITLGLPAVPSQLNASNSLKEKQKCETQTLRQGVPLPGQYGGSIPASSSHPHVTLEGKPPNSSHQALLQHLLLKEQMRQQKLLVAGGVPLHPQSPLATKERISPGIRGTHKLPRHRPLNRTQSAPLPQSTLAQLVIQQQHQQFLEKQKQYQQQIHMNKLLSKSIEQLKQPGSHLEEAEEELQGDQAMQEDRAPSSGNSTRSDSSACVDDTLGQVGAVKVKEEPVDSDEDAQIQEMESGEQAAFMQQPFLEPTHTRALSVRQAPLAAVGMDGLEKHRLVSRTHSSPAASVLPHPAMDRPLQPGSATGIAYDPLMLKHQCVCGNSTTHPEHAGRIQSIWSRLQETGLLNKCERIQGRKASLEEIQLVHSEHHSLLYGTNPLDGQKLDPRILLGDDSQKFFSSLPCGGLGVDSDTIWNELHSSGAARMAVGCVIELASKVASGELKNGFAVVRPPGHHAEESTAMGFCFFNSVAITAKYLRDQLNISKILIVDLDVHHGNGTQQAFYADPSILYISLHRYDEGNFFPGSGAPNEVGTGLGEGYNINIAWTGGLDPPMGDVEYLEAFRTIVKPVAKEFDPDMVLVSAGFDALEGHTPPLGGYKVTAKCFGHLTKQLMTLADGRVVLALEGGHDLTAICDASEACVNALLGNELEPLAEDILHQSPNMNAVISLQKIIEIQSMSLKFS

HDAC10 = target: T3, HDAC10 (Homo sapiens, UniProt Q969S8); test: In vitro HDAC isozyme selectivity screen: HDAC10; type: biochemical; conditions: Table 2
T3 sequence (Q969S8 1-669): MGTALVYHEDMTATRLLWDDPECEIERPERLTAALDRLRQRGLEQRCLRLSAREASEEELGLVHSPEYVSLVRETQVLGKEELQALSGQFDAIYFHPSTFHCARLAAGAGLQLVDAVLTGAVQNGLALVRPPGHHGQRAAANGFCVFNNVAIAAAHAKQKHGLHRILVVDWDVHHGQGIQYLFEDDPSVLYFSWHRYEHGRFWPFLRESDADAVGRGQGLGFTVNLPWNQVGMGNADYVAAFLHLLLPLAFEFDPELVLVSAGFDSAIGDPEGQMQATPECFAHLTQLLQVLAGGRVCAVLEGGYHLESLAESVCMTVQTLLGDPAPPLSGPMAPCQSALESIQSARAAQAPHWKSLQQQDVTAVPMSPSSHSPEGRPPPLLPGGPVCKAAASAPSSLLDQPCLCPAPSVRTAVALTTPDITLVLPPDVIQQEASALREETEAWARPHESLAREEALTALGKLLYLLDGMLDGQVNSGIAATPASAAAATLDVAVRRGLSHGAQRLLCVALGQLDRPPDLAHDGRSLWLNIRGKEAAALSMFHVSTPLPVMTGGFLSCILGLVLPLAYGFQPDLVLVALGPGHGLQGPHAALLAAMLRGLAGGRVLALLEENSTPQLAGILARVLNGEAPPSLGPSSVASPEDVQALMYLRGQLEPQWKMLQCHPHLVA

HDAC4 = HDAC4 (Homo sapiens, UniProt P56524); test: In vitro HDAC isozyme selectivity screen: HDAC4; type: biochemical; conditions: for IC50: Table 2
Sequence of HDAC4 (P56524 whole entry, species assumed): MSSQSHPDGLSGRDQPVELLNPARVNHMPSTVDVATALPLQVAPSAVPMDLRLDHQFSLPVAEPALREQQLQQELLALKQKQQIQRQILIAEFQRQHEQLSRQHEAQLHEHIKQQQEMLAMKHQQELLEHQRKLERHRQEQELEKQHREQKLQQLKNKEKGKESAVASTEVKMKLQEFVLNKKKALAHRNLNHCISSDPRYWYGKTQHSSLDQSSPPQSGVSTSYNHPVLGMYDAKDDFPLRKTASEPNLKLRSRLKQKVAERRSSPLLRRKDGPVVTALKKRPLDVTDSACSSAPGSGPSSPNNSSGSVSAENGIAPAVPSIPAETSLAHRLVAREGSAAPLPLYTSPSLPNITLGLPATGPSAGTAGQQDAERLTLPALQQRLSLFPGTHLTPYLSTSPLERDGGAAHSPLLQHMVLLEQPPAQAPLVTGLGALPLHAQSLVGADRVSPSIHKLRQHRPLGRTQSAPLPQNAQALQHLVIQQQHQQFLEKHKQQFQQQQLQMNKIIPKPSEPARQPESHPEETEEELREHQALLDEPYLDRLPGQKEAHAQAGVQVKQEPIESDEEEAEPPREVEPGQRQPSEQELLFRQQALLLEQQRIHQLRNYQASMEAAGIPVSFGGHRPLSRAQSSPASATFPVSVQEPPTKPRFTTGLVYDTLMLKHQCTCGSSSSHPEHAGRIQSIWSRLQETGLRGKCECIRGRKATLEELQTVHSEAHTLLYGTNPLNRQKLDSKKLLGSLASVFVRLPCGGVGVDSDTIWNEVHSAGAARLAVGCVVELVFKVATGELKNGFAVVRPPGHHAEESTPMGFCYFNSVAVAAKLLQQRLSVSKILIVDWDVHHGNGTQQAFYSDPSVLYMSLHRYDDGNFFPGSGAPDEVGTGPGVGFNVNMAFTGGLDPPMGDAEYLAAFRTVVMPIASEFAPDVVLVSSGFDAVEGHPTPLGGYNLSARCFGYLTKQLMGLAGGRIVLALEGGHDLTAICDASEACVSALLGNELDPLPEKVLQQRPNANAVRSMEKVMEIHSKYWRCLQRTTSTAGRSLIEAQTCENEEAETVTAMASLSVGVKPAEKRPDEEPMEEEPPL

Row | IC50 (HDAC8) [µM] | IC50 (HDAC9) [µM] | IC50 (HDAC10) [µM] | IC50 (HDAC4) [µM] | effect at 100 μM, HDAC7 (HDAC7; 100 μM) | selectivity for HDAC6 over HDAC8 (HDAC8; HDAC8 vs HDAC6 IC50) [fold] | effect at 100 μM, HDAC9 (HDAC9; 100 μM) | effect at 100 μM, HDAC4 (HDAC4; 100 μM) | SMILES | IC50 (HDAC7) [µM] | DEX-activated GR-driven gene expression (transcriptional activity of GR) [1] | enhancement of GR-driven gene expression ([1]; A549, 1 μM, with DEX 1 μM)
1 | 2.1 | > 100 | 33 | > 100 | less than 50% | 57 | less than 50% | less than 50% | O=C(NO)c1ccc(NCc2csc3ccc(Br)cc23)cc1 [Compound 7b, 5-bromo-3-[(4-hydroxycarbamoylphenyl)aminomethyl]-benzothiophene] | – | leaves the transcriptional activity of GR unhampered | –
2 | 1.9 | 25 | 7.6 | 31 | – | – | – | – | O=C(NO)c1ccc(NCc2csc3cc(Br)ccc23)cc1 [Compound 13a, 6-bromo-3-[(4-hydroxycarbamoylphenyl)aminomethyl]-benzothiophene] | 12 | – | –

Row | SMILES | IC50 (HDAC8) [µM] | IC50 (HDAC9) [µM] | IC50 (HDAC10) [µM] | IC50 (HDAC4) [µM] | effect at 100 μM, HDAC7 (HDAC7; 100 μM) | selectivity for HDAC6 over HDAC8 (HDAC8; HDAC8 vs HDAC6 IC50) [fold] | effect at 100 μM, HDAC9 (HDAC9; 100 μM) | effect at 100 μM, HDAC4 (HDAC4; 100 μM) | IC50 (HDAC7) [µM] | DEX-activated GR-driven gene expression (transcriptional activity of GR) [1] | enhancement of GR-driven gene expression ([1]; A549, 1 μM, with DEX 1 μM)
3 | O=C(NO)c1ccc(NCc2csc3ccccc23)cc1 [Compound 7a, 3-[(4-hydroxycarbamoylphenyl)aminomethyl]benzothiophene] | 1.4 | 7.1 | 9.9 | 10 | – | – | – | – | 5.2 | leaves the transcriptional activity of GR unhampered | able to significantly enhance GR-driven gene expression
